Assay results from ChEMBL document CHEMBL1201862, “PubChem BioAssay data set” (2004).
Calls of active or inactive are those of the source.

What was measured:
[1] = tested on: H9c2; assay: cells; assay type: functional, cell-based; settings: Rattus norvegicus, H9c2, Myocardium;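 note: confirmatory concentration-response retest of ultra-high-throughput screening hits for modulation of myocardial damage; cell death induced by hydrogen peroxide oxidative stress; compound pretreatment for 60 min then peroxide exposure for 2 h; potency is for protecting the cells against peroxide damage rather than for killing them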
[2] = LGR2 antagonists, dose response, cell-based, HEK293, CRE-luciferase reporter, cherry pick, set 2 (AID 743343); assay type: functional;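 note: transfected cells were stimulated with diluted bursicon conditioned medium after compound addition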
[3] = MC4R antagonists, dose response, counter-screen for LGR2 antagonist project, cell-based, plate reader, cherry pick (AID 743444); assay type: functional;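 note: transfected HEK 293 cells stimulated with alpha-MSH peptide; potency of inhibitors of the alpha-MSH evoked signal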
[4] = HepG2 cell cytotoxicity, dose response, cytotoxicity control, plate reader, cherry-pick, antagonist series (AID 743416); assay type: functional, cell-based
[5] = A549 cell cytotoxicity, dose response, cytotoxicity control, plate reader, cherry-pick, antagonist series (AID 743412); assay type: functional, cell-based
[6] = HEK293 cell cytotoxicity, dose response, cytotoxicity control, plate reader, cherry-picked samples (AID 743446); assay type: functional, cell-based
[7] = biological target: Induced myeloid leukemia cell differentiation protein Mcl-1 (Homo sapiens, UniProt Q07820); assay type: functional
Chain of Induced myeloid leukemia cell differentiation protein Mcl-1 (Q07820 whole entry): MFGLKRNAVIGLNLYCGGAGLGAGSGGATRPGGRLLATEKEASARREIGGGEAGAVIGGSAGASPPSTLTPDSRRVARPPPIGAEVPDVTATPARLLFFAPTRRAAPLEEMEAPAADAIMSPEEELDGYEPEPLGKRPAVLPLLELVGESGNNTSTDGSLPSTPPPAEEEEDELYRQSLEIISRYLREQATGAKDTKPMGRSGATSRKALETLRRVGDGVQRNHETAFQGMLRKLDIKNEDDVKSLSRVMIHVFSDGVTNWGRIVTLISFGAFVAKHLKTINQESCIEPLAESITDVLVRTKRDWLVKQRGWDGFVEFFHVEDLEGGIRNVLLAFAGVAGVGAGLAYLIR

[8] = Luminescence Cell-Based Dose Response HTS to Identify Activators of Luciferase Translation or Activity in H4 […] Cells. [Related pubchem assays: 1829 (Project Summary), 1814 (Primary HTS)]; assay type: functional
[9] = Luminescence Cell-Based Dose Confirmation HTS to Identify Activators of 5'UTR Stem-Loop Driven Alpha-Synuclein mRNA Translation in H4 Neuroglioblastoma Cells. [Related pubchem assays: 1829 (Project Summary), 1814 (Primary HTS)]; assay type: functional
[10] = tested on: H4; assay: Luminescence Cell-Based Dose Response HTS to Identify Activators of 5'UTR Stem-Loop Driven Prion Protein mRNA Translation in H4 Neuroglioblastoma Cells. [Related pubchem assays: 1829 (Project Summary), 1814 (Primary HTS)]; assay type: functional; settings: Homo sapiens
[11] = P. falciparum Dd2 growth inhibitors, dose response, SYBR Green, cherry-picked samples (AID 1159567); assay type: functional, cell-based
[12] = tested on: P388/ADR; assay: cells; assay type: functional; settings: Mus musculus
[13] = tested on: P388; assay: cells; assay type: functional; settings: Mus musculus
[14] = tested on: SN12K1; assay: cells; assay type: functional; settings: Homo sapiens
[15] = HEp-2 cell cytotoxicity, dose response, cytotoxicity control for RSV inhibitor project, HTS (AID 2410); assay type: functional; settings: human respiratory syncytial virus
[16] = NIH-3T3 fibroblast cytotoxicity, dose response, cytotoxicity control, cell-based, fluorescence, Alamar Blue, secondary assay (AID 2327); assay type: functional;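 note: NIH-3T3 mouse fibroblasts cultured with fluconazole at 8 µg/mL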
[17] = biological target: T1, Replicative DNA helicase DnaB (Mycobacterium tuberculosis, UniProt P9WMR3); assay: DnaB intein splicing inhibitors, dose response, biochemical, cell-free fluorescence (AID 449749); assay type: functional
T1 sequence (P9WMR3 whole entry): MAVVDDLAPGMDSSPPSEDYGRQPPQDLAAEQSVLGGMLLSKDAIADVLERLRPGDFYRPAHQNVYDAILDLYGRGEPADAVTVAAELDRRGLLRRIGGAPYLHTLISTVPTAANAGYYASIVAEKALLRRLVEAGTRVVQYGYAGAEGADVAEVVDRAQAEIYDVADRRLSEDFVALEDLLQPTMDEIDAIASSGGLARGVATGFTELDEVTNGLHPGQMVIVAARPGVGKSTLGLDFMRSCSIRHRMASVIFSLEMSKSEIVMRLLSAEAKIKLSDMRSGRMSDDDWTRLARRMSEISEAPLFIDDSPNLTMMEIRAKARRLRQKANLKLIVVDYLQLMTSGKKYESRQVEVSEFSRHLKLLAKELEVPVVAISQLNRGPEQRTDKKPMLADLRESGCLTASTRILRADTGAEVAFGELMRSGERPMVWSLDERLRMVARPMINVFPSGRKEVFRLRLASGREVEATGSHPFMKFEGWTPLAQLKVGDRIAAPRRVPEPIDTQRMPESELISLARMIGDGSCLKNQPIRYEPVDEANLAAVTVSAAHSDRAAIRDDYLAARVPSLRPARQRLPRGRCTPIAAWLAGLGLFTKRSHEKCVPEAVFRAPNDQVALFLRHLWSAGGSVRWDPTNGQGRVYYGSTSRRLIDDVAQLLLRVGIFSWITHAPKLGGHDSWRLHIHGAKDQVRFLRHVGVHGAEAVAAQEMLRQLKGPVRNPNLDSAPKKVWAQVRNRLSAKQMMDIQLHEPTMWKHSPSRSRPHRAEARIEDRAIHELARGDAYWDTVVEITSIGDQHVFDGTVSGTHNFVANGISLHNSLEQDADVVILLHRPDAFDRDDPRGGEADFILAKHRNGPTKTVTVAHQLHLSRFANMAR

[18] = biological target: T2, Protein RecA (Mycobacterium tuberculosis, UniProt P9WHJ3); assay: Fluorescence Cell-Free Homogeneous Dose Retest to Identify Inhibitors of RecA-Intein Splicing Activity. [Related pubchem assays (depositor defined):AID2097, AID2223, AID489010, AID492950]; assay type: functional
T2 sequence (P9WHJ3 whole entry): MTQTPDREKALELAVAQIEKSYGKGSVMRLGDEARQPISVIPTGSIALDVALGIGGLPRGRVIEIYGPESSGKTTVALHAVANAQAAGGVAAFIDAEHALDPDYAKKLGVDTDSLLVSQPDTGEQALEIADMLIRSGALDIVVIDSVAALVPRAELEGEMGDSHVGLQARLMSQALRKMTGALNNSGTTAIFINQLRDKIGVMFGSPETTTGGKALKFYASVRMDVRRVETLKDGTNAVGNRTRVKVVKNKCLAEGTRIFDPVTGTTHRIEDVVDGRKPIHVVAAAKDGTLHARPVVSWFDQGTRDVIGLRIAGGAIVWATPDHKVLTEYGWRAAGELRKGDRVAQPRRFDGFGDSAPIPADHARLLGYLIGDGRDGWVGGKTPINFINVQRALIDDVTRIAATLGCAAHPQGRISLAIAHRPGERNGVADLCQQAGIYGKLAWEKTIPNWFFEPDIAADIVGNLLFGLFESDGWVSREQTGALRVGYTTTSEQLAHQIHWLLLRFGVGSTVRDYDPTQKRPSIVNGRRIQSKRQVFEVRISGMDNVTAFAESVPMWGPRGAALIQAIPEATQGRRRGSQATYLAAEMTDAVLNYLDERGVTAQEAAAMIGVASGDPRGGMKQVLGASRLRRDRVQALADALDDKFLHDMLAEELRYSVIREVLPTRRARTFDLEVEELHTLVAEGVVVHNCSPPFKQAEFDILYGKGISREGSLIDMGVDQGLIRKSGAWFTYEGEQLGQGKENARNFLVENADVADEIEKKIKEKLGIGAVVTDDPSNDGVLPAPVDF

[19] = C. albicans growth with fluconazole, confirmation, fluorescence, retest (AID 2467); assay type: functional, cell-based
[20] = biological target: T3, Coagulation factor XII (Homo sapiens, UniProt P00748); assay type: functional;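 note: activated factor XIIa alpha cleaving a fluorogenic AMC peptide substrate; inhibitor potency from loss of enzyme activity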
T3 sequence (P00748 whole entry): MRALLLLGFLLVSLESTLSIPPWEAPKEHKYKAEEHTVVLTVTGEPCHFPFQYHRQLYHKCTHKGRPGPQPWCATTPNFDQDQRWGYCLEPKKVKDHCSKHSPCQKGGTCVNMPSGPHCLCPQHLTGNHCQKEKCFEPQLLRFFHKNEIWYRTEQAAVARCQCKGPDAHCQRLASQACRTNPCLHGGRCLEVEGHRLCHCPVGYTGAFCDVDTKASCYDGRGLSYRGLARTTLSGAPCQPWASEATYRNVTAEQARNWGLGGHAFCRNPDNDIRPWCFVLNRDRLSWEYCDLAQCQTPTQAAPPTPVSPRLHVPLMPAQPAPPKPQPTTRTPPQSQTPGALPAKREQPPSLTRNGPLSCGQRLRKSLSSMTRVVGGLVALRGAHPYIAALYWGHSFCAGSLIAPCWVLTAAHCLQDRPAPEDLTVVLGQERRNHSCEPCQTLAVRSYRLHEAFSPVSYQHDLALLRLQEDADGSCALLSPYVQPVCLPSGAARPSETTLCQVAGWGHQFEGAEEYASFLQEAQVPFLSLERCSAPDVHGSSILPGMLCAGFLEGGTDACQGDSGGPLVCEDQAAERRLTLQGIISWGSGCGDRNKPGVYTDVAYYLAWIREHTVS

In the case of `COc1ccnc(Oc2ccccc2)c1C(=O)N=CNOCc1ccc(F)cc1Cl`, the IC50 [1] is reported as > 79 µM (inactive).

For `C=CC[C@@H](CC(=O)NCCO)C(=O)NC[C@H](OC(=O)[C@@H](CC=C)Cc1ccc(F)cc1)c1ccccc1`, the IC50 [1] was > 79 µM (inactive).

With `O=C(COc1ccc2c(c1)OCO2)Nc1nccs1` the AC50 [2] was 7.13 µM (active), the AC50 [3] was 10.2 µM (active) and the AC50 [4] was > 52 µM (inactive). The AC50 [5] was > 52 µM (inactive) and the AC50 [6] was 20.6 µM (active).

In the case of `COc1ccc(CCNC(=O)CN(c2ccc(OC)c(OC)c2)S(C)(=O)=O)cc1`, the IC50 [7] is reported as 26 µM (not active).

For `O=C(NC(=O)c1csnn1)Nc1ccccc1Cl`, the EC50 [8] was 94 µM (active), the EC50 [9] was 5.61 µM (active) and the EC50 [10] was > 60 µM (not active).

For `Cc1ccc(-c2ccccc2[C@H]2[C@@H](C#N)N(C(=O)NC3CCCC3)[C@H]2CO)cc1`, the AC50 [11] was 7.19 µM (active).

For `O=[N+]([O-])c1cccc2c1[nH]c1c(-c3ccccc3)nccc12`, the GI50 [12] was 2.52 µM (inactive), the GI50 [13] was 2.52 µM (inactive) and the GI50 [14] was 1.72 µM (inactive).

In the case of `CCOC(=O)c1nn(-c2ccc3c(c2)OCO3)cc1O`, the EC50 [8] is reported as 15.7 µM (active), the EC50 [9] is reported as 16.6 µM (active) and the EC50 [10] is reported as 23.9 µM (active).

For `O=C(CSc1nc2ccccc2s1)Nc1cc(S(=O)(=O)N2CCOCC2)ccc1O`, the IC50 [7] was 1.75 µM (active).

For `OCC#CCNCl`, the GI50 [12] was > 46 µM (inactive), the GI50 [13] was 16.1 µM (inactive) and the GI50 [14] was > 100 µM (inactive).

For `Cn1nnnc1Sc1ncnc2scc(-c3ccccc3C(F)(F)F)c12`, the CC50 [15] was 7.66 µM (active), the AC50 [5] was 20.7 µM (active) and the AC50 [6] was 27.9 µM (active).

With `O=c1c(Cl)c(NCCCO)cnn1-c1nc2ccccc2[nH]1` the EC50 [16] was 9.04 µM (inconclusive), the AC50 [17] was > 380 µM (inactive) and the EC50 [18] was 7.41 µM (active). For the same molecule, the EC50 [9] was 25.2 µM (active), the EC50 [19] was 3.47 µM (active) and the EC50 [10] was 88 µM (active).

For `COc1ccccc1C(=O)n1nc(-c2cccnc2)nc1N`, the IC50 [20] was 0.503 µM (active).
